molecular target: hMC2 receptor (Homo sapiens, UniProt Q01718); test: hMC2 membrane binding assay ([125I]ACTH (1-39) Tyr23, SPA); set-up: scale not given here; conditions: crude hMC2R membranes from CRE-bla-CHO-K1 cells expressing hMC2 receptor and hMRAP; [125I]ACTH (1-39) Tyr23 0.2 nM; 1.5 hours at room temperature; read-out: MC2R binding potency
Summary of the method: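 Ki comes from non-linear regression of SPA scintillation counts. Displacement of 0.2 nM [125I]ACTH(1-39) Tyr23 by compound dose series (usually 0–10,000 nM final) ran 1.5 h at room temperature. Membranes came from CHO-K1 CRE-bla cells stably expressing hMC2R plus hMRAP, bead-coupled in pH 7.4 buffer with 0.2% BSA.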

Chain of hMC2 receptor (Q01718 whole entry): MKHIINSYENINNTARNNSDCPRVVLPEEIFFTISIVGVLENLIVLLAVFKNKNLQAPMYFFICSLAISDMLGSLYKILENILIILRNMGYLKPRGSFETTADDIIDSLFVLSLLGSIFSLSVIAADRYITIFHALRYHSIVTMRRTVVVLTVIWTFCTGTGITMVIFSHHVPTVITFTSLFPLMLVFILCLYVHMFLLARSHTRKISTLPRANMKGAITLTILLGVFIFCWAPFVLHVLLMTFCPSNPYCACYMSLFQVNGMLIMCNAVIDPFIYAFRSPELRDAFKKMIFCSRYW
Chain of hMC2 receptor (Q8TCY5 whole entry partner): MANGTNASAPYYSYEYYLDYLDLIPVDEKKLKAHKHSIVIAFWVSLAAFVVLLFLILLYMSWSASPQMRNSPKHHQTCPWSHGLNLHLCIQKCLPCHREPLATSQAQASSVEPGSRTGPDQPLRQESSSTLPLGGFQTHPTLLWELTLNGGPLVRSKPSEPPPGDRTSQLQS

Row | Ki | SMILES
1 | < 10 nM | CCOc1ncccc1-c1ccc(N2CCN(C(=O)C3(C(F)(F)F)CC(F)(F)C3)C[C@H]2CC)c(C(=O)N[C@@H]2CCNC2)n1 [Compound 1-298, 5-[(2R)-4-[3,3-difluoro-1-(trifluoromethyl)cyclobutanecarbonyl]-2-ethylpiperazin-1-yl]-2′-ethoxy-N-[(3R)-pyrrolidin-3-yl]-[2,3′-bipyridine]-6-carboxamide]
2 | < 10 nM | CCOc1ccccc1-c1ccc(N2CCN(C(=O)N3CCCC[C@H]3C(F)(F)F)C[C@H]2CC)c(C(=O)N[C@@H]2CCN(C)C2)n1 [Compound 1-433, 6-(2-ethoxyphenyl)-3-[(2R)-2-ethyl-4-[(2S)-2-(trifluoromethyl)piperidine-1-carbonyl]piperazin-1-yl]-N-[(3R)-1-methylpyrrolidin-3-yl]pyridine-2-carboxamide]
3 | < 10 nM | CCOc1ncccc1-c1ccc(N2CCN(C(=O)c3ccc(Cl)cc3C(F)(F)F)C[C@H]2CC)c(C(=O)NCC2=NCCN2C)n1 [Compound 1-227, 5-[(2R)-4-[4-chloro-2-(trifluoromethyl)benzoyl]-2-ethylpiperazin-1-yl]-2′-ethoxy-N-[(1-methyl-4,5-dihydro-1H-imidazol-2-yl)methyl]-[2,3′-bipyridine]-6-carboxamide]
4 | < 10 nM | CCOc1ncccc1-c1ccc(N2CCN(C(=O)c3ccc(OC)nc3C(F)(F)F)C[C@H]2CC)c(C(=O)NCCNC)n1 [Compound 1-187, 2′-ethoxy-5-[(2R)-2-ethyl-4-[6-methoxy-2-(trifluoromethyl)pyridine-3-carbonyl]piperazin-1-yl]-N-[2-(methylamino)ethyl]-[2,3′-bipyridine]-6-carboxamide]
5 | < 10 nM | CCOc1ncccc1-c1ccc(N2CCN(C(=O)C3(C(F)(F)F)CCCC3)C[C@H]2CC)c(C(=O)N[C@H]2CCN(C)C2)n1 [Compound 1-363, 2′-ethoxy-5-[(2R)-2-ethyl-4-[1-(trifluoromethyl)cyclopentanecarbonyl]piperazin-1-yl]-N-[(3S)-1-methylpyrrolidin-3-yl]-[2,3′-bipyridine]-6-carboxamide]
6 | < 10 nM | CCOc1ccc(C(=O)N2CCN(c3ccc(-c4cccnc4OCC)nc3CN)[C@H](CC)C2)c(C(F)(F)F)n1 [Compound 2-30]
7 | < 10 nM | CCOc1ncccc1-c1ccc(N2CCN(C(=O)c3ccc(OC)cc3C(F)(F)F)C[C@H]2CC)c(C(=O)NCCNC)n1 [Compound 1-167, 2′-ethoxy-5-[(2R)-2-ethyl-4-[4-methoxy-2-(trifluoromethyl)benzoyl]piperazin-1-yl]-N-[2-(methylamino)ethyl]-[2,3′-bipyridine]-6-carboxamide]
8 | < 10 nM | CCOc1ncccc1-c1ccc(N2CCN(C(=O)c3ccc(OC)nc3C(F)(F)F)C[C@H]2CC)c(C(=O)NC2CN(C)C2)n1 [Compound 1-230, 2′-ethoxy-5-[(2R)-2-ethyl-4-[6-methoxy-2-(trifluoromethyl)pyridine-3-carbonyl]piperazin-1-yl]-N-(1-methylazetidin-3-yl)-[2,3′-bipyridine]-6-carboxamide]
9 | < 10 nM | CCOc1ncccc1-c1ccc(N2CCN(C(=O)OC(C(C)(C)C)C(F)(F)F)C[C@H]2CC)c(C(=O)N[C@@H]2CCNC2)n1 (single isomer, unassigned) [Compound 1-367, (2S*)-1,1,1-trifluoro-3,3-dimethylbutan-2-yl (3R)-4-(2′-ethoxy-6-{[(3R)-pyrrolidin-3-yl]carbamoyl}-[2,3′-bipyridin]-5-yl)-3-ethylpiperazine-1-carboxylate]
10 | < 10 nM | CCOc1ncccc1-c1ccc(N2CCN(C(=O)C34CCC(CC3)C4(C)C)C[C@H]2CC)c(C(=O)N[C@@H]2CCNC2)n1 [Compound 1-314, 5-[(2R)-4-{7,7-dimethylbicyclo[2.2.1]heptane-1-carbonyl}-2-ethylpiperazin-1-yl]-2′-ethoxy-N-[(3R)-pyrrolidin-3-yl]-[2,3′-bipyridine]-6-carboxamide]
11 | < 10 nM | CCOc1ccccc1-c1ccc(N2CCN(C(=O)N3CCC[C@H]3C(F)(F)F)C[C@H]2CC)c(C(=O)NCC2CN(C)C2)n1 [Compound 1-362, 6-(2-ethoxyphenyl)-3-[(2R)-2-ethyl-4-[(2S)-2-(trifluoromethyl)pyrrolidine-1-carbonyl]piperazin-1-yl]-N-[(1-methylazetidin-3-yl)methyl]pyridine-2-carboxamide]
12 | < 10 nM | CCOc1ncccc1-c1ccc(N2CCN(C(=O)c3ccc(OC)cc3C(F)(F)F)C[C@H]2CC)c(C(=O)N[C@@H]2CCNC2)c1 [Compound 1-143, 5-(2-ethoxypyridin-3-yl)-2-[(2R)-2-ethyl-4-[4-methoxy-2-(trifluoromethyl)benzoyl]piperazin-1-yl]-N-[(3R)-pyrrolidin-3-yl]benzamide]
13 | < 10 nM | CCOc1ncccc1-c1ccc(N2CCN(C(=O)c3ccc(OC)cc3C(F)(F)F)C[C@H]2CC)c(C(=O)NCCN(C)C)c1F [Compound 1-168, N-[2-(dimethylamino)ethyl]-3-(2-ethoxypyridin-3-yl)-6-[(2R)-2-ethyl-4-[4-methoxy-2-(trifluoromethyl)benzoyl]piperazin-1-yl]-2-fluorobenzamide]
14 | < 10 nM | CCOc1ccccc1-c1ccc(N2CCN(C(=O)n3ccc4cccc(C#N)c43)C[C@H]2CC)c(C(=O)N[C@@H]2CCN(C)C2)n1 [Compound 1-432, 3-[(2R)-4-(7-cyano-1H-indole-1-carbonyl)-2-ethylpiperazin-1-yl]-6-(2-ethoxyphenyl)-N-[(3R)-1-methylpyrrolidin-3-yl]pyridine-2-carboxamide]
15 | < 10 nM | CCOc1ncccc1-c1ccc(N2CCN(C(=O)c3ccc(Cl)cc3C(F)(F)F)C[C@H]2CC)c(C(=O)NCC2CN(C)C2)n1 [Compound 1-223, 5-[(2R)-4-[4-chloro-2-(trifluoromethyl)benzoyl]-2-ethylpiperazin-1-yl]-2′-ethoxy-N-[(1-methylazetidin-3-yl)methyl]-[2,3′-bipyridine]-6-carboxamide]
16 | < 10 nM | CCOc1ccccc1-c1ccc(N2CCN(C(=O)c3ccc(Cl)cc3C(F)(F)F)C[C@H]2CC)c(C(=O)N[C@@H]2CCN(C)C2)n1 [Compound 1-206, 3-[(2R)-4-[4-chloro-2-(trifluoromethyl)benzoyl]-2-ethylpiperazin-1-yl]-6-(2-ethoxyphenyl)-N-[(3R)-1-methylpyrrolidin-3-yl]pyridine-2-carboxamide]
17 | < 10 nM | CCOc1ncccc1-c1ccc(N2CCN(C(=O)c3ccc(Cl)cc3C#N)C[C@H]2CC)c(C(=O)N[C@@H]2CCN(C)C2)n1 [Compound 1-260, 5-[(2R)-4-(4-chloro-2-cyanobenzoyl)-2-ethylpiperazin-1-yl]-2′-ethoxy-N-[(3R)-1-methylpyrrolidin-3-yl]-[2,3′-bipyridine]-6-carboxamide]
18 | < 10 nM | CCOc1ncccc1-c1ccc(N2CCN(C(=O)c3ccc(F)cc3C(F)F)C[C@H]2CC)c(C(=O)NCCN(C)C)c1F [Compound 1-176, 6-[(2R)-4-[2-(difluoromethyl)-4-fluorobenzoyl]-2-ethylpiperazin-1-yl]-N-[2-(dimethylamino)ethyl]-3-(2-ethoxypyridin-3-yl)-2-fluorobenzamide]
19 | < 10 nM | CCOc1ncccc1-c1ccc(N2CCN(C(=O)c3ccc(F)cc3Cl)C[C@H]2CC)c(C(=O)N[C@@H]2CCN(C)C2)n1 [Compound 1-261, 5-[(2R)-4-[2-chloro-4-fluorobenzoyl]-2-ethylpiperazin-1-yl]-2′-ethoxy-N-[(3R)-1-methylpyrrolidin-3-yl]-[2,3′-bipyridine]-6-carboxamide]
20 | < 10 nM | CCOc1ncccc1-c1ccc(N2CCN(C(=O)c3ccc(F)cc3C(F)(F)F)C[C@H]2CC)c(C(=O)NCCN)c1 [Compound 1-58, N-(2-aminoethyl)-5-(2-ethoxypyridin-3-yl)-2-[(2R)-2-ethyl-4-[4-fluoro-2-(trifluoromethyl)benzoyl]piperazin-1-yl]benzamide]
21 | < 10 nM | CCOc1ncccc1-c1ccc(N2CCN(C(=O)c3ccc(OC)nc3C(F)(F)F)C[C@H]2CC)c(C(=O)NC[C@@H]2CCN2C)n1 [Compound 1-245, 2′-ethoxy-5-[(2R)-2-ethyl-4-[6-methoxy-2-(trifluoromethyl)pyridine-3-carbonyl]piperazin-1-yl]-N-{[(2S)-1-methylazetidin-2-yl]methyl}-[2,3′-bipyridine]-6-carboxamide]
22 | < 10 nM | CCOc1ncccc1-c1ccc(N2CCN(C(=O)N3CCc4cc(F)cc(C#N)c43)C[C@H]2CC)c(C(=O)N[C@H]2CCN(C)C2)n1 [Compound 1-423, 5-[(2R)-4-(7-cyano-5-fluoro-2,3-dihydro-1H-indole-1-carbonyl)-2-ethylpiperazin-1-yl]-2′-ethoxy-N-[(3S)-1-methylpyrrolidin-3-yl]-[2,3′-bipyridine]-6-carboxamide]
23 | < 10 nM | CCOc1ncccc1-c1ccc(N2CCN(C(=O)[C@H]3CC[C@@H](C(F)(F)F)CC3)C[C@H]2CC)c(C(=O)N[C@@H]2CCNC2)n1 [Compound 1-299, 2′-ethoxy-5-[(2R)-2-ethyl-4-[cis-4-(trifluoromethyl)cyclohexanecarbonyl]piperazin-1-yl]-N-[(3R)-pyrrolidin-3-yl]-[2,3′-bipyridine]-6-carboxamide]
24 | < 10 nM | CCOc1ccccc1-c1ccc(N2CCN(C(=O)c3ccc(C)cc3-c3ccc(CN)cc3)C[C@H]2CC)c(C(=O)NCCN)c1 [Compound 1-18, (R)-N-(2-aminoethyl)-4-(4-(4′-(aminomethyl)-5-methyl-[1,1′-biphenyl]-2-carbonyl)-2-ethylpiperazin-1-yl)-2′-ethoxy-[1,1′-biphenyl]-3-carboxamide]
